Assay results as given in ChEMBL document CHEMBL4308841, “Synthesis, in vitro antiproliferative activity, and kinase inhibitory effects of pyrazole-containing diarylureas and diarylamides” (Eur J Med Chem, 2018).
pIC50: −log10 of the molar value.

What was measured:
DU-145 [1] = experiment: Growth inhibition of human DU145 cells incubated for 48 hrs by sulforhodamine B assay; assay type: functional, cell-based; settings: DU-145, 48 h
SW-620 = experiment: Growth inhibition of human SW620 cells assessed as cell growth at 1 uM incubated for 48 hrs by sulforhodamine B assay relative to control; assay type: functional; settings: SW-620, 48 h, read-out: Activity
HL-60(TB) = experiment: Growth inhibition of human HL-60(TB) cells assessed as cell growth at 100 uM incubated for 48 hrs by sulforhodamine B assay relative to control; assay type: functional; settings: HL-60, 48 h, read-out: Activity
KM12 [2] = experiment: Growth inhibition of human KM12 cells incubated for 48 hrs by sulforhodamine B assay; assay type: functional, cell-based; settings: KM12, 48 h
SF-268 = experiment: Growth inhibition of human SF268 cells assessed as cell growth at 1 uM incubated for 48 hrs by sulforhodamine B assay relative to control; assay type: functional; settings: SF-268, 48 h, read-out: Activity
SNB-75 [3] = experiment: Growth inhibition of human SNB75 cells assessed as cell growth at 0.1 uM incubated for 48 hrs by sulforhodamine B assay relative to control; assay type: functional; settings: SNB-75, 48 h, read-out: Activity
HT-29 = experiment: Growth inhibition of human HT-29 cells assessed as cell growth at 100 uM incubated for 48 hrs by sulforhodamine B assay relative to control; assay type: functional; settings: HT-29, 48 h, read-out: Activity
HOP-62 = experiment: Growth inhibition of human HOP62 cells assessed as cell growth at 0.1 uM incubated for 48 hrs by sulforhodamine B assay relative to control; assay type: functional; settings: HOP-62, 48 h, read-out: Activity
SK-MEL-5 = experiment: Growth inhibition of human SK-MEL-5 cells assessed as cell growth at 100 uM incubated for 48 hrs by sulforhodamine B assay relative to control; assay type: functional; settings: SK-MEL-5, 48 h, read-out: Activity
MCF7 = experiment: Growth inhibition of human MCF7 cells assessed as cell growth at 0.01 uM incubated for 48 hrs by sulforhodamine B assay relative to control; assay type: functional; settings: MCF7, 48 h, read-out: Activity
A498 = experiment: Growth inhibition of human A498 cells incubated for 48 hrs by sulforhodamine B assay; assay type: functional, cell-based; settings: A498, 48 h
HCT-116 = experiment: Growth inhibition of human HCT116 cells assessed as cell growth at 0.1 uM incubated for 48 hrs by sulforhodamine B assay relative to control; assay type: functional; settings: HCT-116, 48 h, read-out: Activity
NCI/ADR-RES = experiment: Growth inhibition of human NCI/ADR-RES cells assessed as cell growth at 100 uM incubated for 48 hrs by sulforhodamine B assay relative to control; assay type: functional; settings: read-out: Activity
RPMI-8226 = experiment: Growth inhibition of human RPMI8226 cells assessed as cell growth at 1 uM incubated for 48 hrs by sulforhodamine B assay relative to control; assay type: functional; settings: RPMI-8226, 48 h, read-out: Activity
ACHN = experiment: Growth inhibition of human ACHN cells assessed as cell growth at 0.01 uM incubated for 48 hrs by sulforhodamine B assay relative to control; assay type: functional; settings: read-out: Activity
SNB-75 [4] = experiment: Growth inhibition of human SNB75 cells assessed as cell growth at 100 uM incubated for 48 hrs by sulforhodamine B assay relative to control; assay type: functional; settings: SNB-75, 48 h, read-out: Activity
A549 = experiment: Growth inhibition of human A549/ATCC cells assessed as cell growth at 0.01 uM incubated for 48 hrs by sulforhodamine B assay relative to control; assay type: functional; settings: A549, 48 h, read-out: Activity
SK-MEL-28 [5] = experiment: Growth inhibition of human SK-MEL-28 cells assessed as cell growth at 1 uM incubated for 48 hrs by sulforhodamine B assay relative to control; assay type: functional; settings: SK-MEL-28, 48 h, read-out: Activity
RXF 393 = experiment: Growth inhibition of human RXF393 cells assessed as cell growth at 0.1 uM incubated for 48 hrs by sulforhodamine B assay relative to control; assay type: functional; settings: RXF 393, 48 h, read-out: Activity
SF-539 = experiment: Growth inhibition of human SF539 cells assessed as cell growth at 0.1 uM incubated for 48 hrs by sulforhodamine B assay relative to control; assay type: functional; settings: SF-539, 48 h, read-out: Activity
U-251 = experiment: Growth inhibition of human U251 cells assessed as cell growth at 1 uM incubated for 48 hrs by sulforhodamine B assay relative to control; assay type: functional; settings: U-251, 48 h, read-out: Activity
OVCAR-3 = experiment: Growth inhibition of human OVCAR3 cells incubated for 48 hrs by sulforhodamine B assay; assay type: functional, cell-based; settings: OVCAR-3, 48 h
KM12 [6] = experiment: Growth inhibition of human KM12 cells assessed as cell growth at 1 uM incubated for 48 hrs by sulforhodamine B assay relative to control; assay type: functional; settings: KM12, 48 h, read-out: Activity
SK-MEL-28 [7] = experiment: Growth inhibition of human SK-MEL-28 cells assessed as cell growth at 0.1 uM incubated for 48 hrs by sulforhodamine B assay relative to control; assay type: functional; settings: SK-MEL-28, 48 h, read-out: Activity
OVCAR-4 = experiment: Growth inhibition of human OVCAR4 cells assessed as cell growth at 0.1 uM incubated for 48 hrs by sulforhodamine B assay relative to control; assay type: functional; settings: OVCAR-4, 48 h, read-out: Activity
KM12 [8] = experiment: Growth inhibition of human KM12 cells assessed as cell growth at 100 uM incubated for 48 hrs by sulforhodamine B assay relative to control; assay type: functional; settings: KM12, 48 h, read-out: Activity
TK-10 = experiment: Growth inhibition of human TK10 cells assessed as cell growth at 10 uM incubated for 48 hrs by sulforhodamine B assay relative to control; assay type: functional; settings: TK-10, 48 h, read-out: Activity
MOLT-4 = experiment: Growth inhibition of human MOLT4 cells assessed as cell growth at 0.1 uM incubated for 48 hrs by sulforhodamine B assay relative to control; assay type: functional; settings: MOLT-4, 48 h, read-out: Activity
DU-145 [9] = experiment: Growth inhibition of human DU145 cells assessed as cell growth at 1 uM incubated for 48 hrs by sulforhodamine B assay relative to control; assay type: functional; settings: DU-145, 48 h, read-out: Activity
786-0 = experiment: Growth inhibition of human 786-0 cells assessed as cell growth at 100 uM incubated for 48 hrs by sulforhodamine B assay relative to control; assay type: functional; settings: 786-0, 48 h, read-out: Activity
KM12 [10] = experiment: Growth inhibition of human KM12 cells assessed as cell growth at 0.1 uM incubated for 48 hrs by sulforhodamine B assay relative to control; assay type: functional; settings: KM12, 48 h, read-out: Activity
[11] = read-out: LC50 (the source's name)
[12] = read-out: pLC50 (the source's name) (converted)

## COc1cc(Cl)cc(-c2nn(-c3cccc(NC(=O)c4ccc(N5CCOCC5)c(C(F)(F)F)c4)c3)cc2-c2ccncc2)c1
DU-145 [1]; read-out: GI50
  GI50: > 100 µM
DU-145 [1]; [11]
  CC50: > 100 µM
DU-145 [1]; read-out: TGI
  TGI: > 100 µM
DU-145 [1]; read-out: pGI50 (converted)
  GI50: > 100 µM
DU-145 [1]; [12]
  CC50: > 100 µM
DU-145 [1]; read-out: pTGI (converted)
  TGI: > 100 µM
SW-620
  growth at 1 µM: 103%
HL-60(TB)
  growth at 100 µM: -15%
KM12 [2]; read-out: GI50
  GI50: 5.38 µM
KM12 [2]; [11]
  CC50: > 100 µM
KM12 [2]; read-out: TGI
  TGI: > 100 µM
KM12 [2]; read-out: pGI50 (converted)
  GI50: 5.37 µM
KM12 [2]; [12]
  CC50: > 100 µM
KM12 [2]; read-out: pTGI (converted)
  TGI: > 100 µM
SF-268
  growth at 1 µM: 93%
SNB-75 [3]
  growth at 0.1 µM: 54%
HT-29
  growth at 100 µM: -17%
HOP-62
  growth at 0.1 µM: 105%
SK-MEL-5
  growth at 100 µM: 21%
MCF7
  growth at 0.01 µM: 91%
A498; read-out: GI50
  GI50: 1.52 µM
A498; [11]
  CC50: > 100 µM
A498; read-out: TGI
  TGI: > 100 µM
A498; read-out: pGI50 (converted)
  GI50: 16.2 µM
A498; [12]
  CC50: > 100 µM
A498; read-out: pTGI (converted)
  TGI: > 100 µM
HCT-116
  growth at 0.1 µM: 97%
NCI/ADR-RES
  growth at 100 µM: 30%
RPMI-8226
  growth at 1 µM: 59%
ACHN
  growth at 0.01 µM: 100%
SNB-75 [4]
  growth at 100 µM: 18%
A549
  growth at 0.01 µM: 103%
SK-MEL-28 [5]
  growth at 1 µM: 53%
RXF 393
  growth at 0.1 µM: 100%
SF-539
  growth at 0.1 µM: 85%
U-251
  growth at 1 µM: 78%
OVCAR-3
  pIC50: 4.27
OVCAR-3; read-out: GI50
  GI50: 5.31 µM
OVCAR-3; [11]
  CC50: > 100 µM
OVCAR-3; read-out: TGI
  TGI: > 100 µM
OVCAR-3; read-out: pGI50 (converted)
  GI50: 53.7 µM
OVCAR-3; [12]
  CC50: > 100 µM
OVCAR-3; read-out: pTGI (converted)
  TGI: > 100 µM
KM12 [6]
  growth at 1 µM: 52%
SK-MEL-28 [7]
  growth at 0.1 µM: 103%
OVCAR-4
  growth at 0.1 µM: 103%
KM12 [8]
  growth at 100 µM: 20%
TK-10
  growth at 10 µM: 90.6%
MOLT-4
  growth at 0.1 µM: 90%
DU-145 [9]
  growth at 1 µM: 105%
786-0
  growth at 100 µM: -30%
KM12 [10]
  growth at 0.1 µM: 95%

## COc1cc(Cl)cc(-c2nn(-c3cccc(NC(=O)Nc4ccc(Cl)c(C(F)(F)F)c4)c3)cc2-c2ccncc2)c1
DU-145 [1]; read-out: GI50
  GI50: 1.55 µM
DU-145 [1]; [11]
  CC50: 55.2 µM
DU-145 [1]; read-out: TGI
  TGI: 14 µM
DU-145 [1]; read-out: pGI50 (converted)
  GI50: 1.86 µM
DU-145 [1]; [12]
  CC50: 56.2 µM
DU-145 [1]; read-out: pTGI (converted)
  TGI: 14.1 µM
SW-620
  growth at 1 µM: 63%
HL-60(TB)
  growth at 100 µM: -22%
KM12 [2]; read-out: GI50
  GI50: 0.555 µM
KM12 [2]; [11]
  CC50: 4 µM
KM12 [2]; read-out: TGI
  TGI: 44.4 µM
KM12 [2]; read-out: pGI50 (converted)
  GI50: 0.55 µM
KM12 [2]; [12]
  CC50: 40.7 µM
KM12 [2]; read-out: pTGI (converted)
  TGI: 4.47 µM
SF-268
  growth at 1 µM: 83%
SNB-75 [3]
  growth at 0.1 µM: 52%
HT-29
  growth at 100 µM: -84%
HOP-62
  growth at 0.1 µM: 104%
SK-MEL-5
  growth at 100 µM: -77%
MCF7
  growth at 0.01 µM: 90%
A498; read-out: GI50
  GI50: 2.58 µM
A498; [11]
  CC50: 57.6 µM
A498; read-out: TGI
  TGI: 14.4 µM
A498; read-out: pGI50 (converted)
  GI50: 2.69 µM
A498; [12]
  CC50: 57.5 µM
A498; read-out: pTGI (converted)
  TGI: 4.27 µM
HCT-116
  growth at 0.1 µM: 97%
NCI/ADR-RES
  growth at 100 µM: -15%
RPMI-8226
  growth at 1 µM: 17%
ACHN
  growth at 0.01 µM: 91%
SNB-75 [4]
  growth at 100 µM: -38%
A549
  growth at 0.01 µM: 97%
SK-MEL-28 [5]
  growth at 1 µM: 85%
RXF 393
  growth at 0.1 µM: 96%
SF-539
  growth at 0.1 µM: 91%
U-251
  growth at 1 µM: 43%
OVCAR-3
  pIC50: 6.35
OVCAR-3; read-out: GI50
  GI50: 0.451 µM
OVCAR-3; [11]
  CC50: 54.6 µM
OVCAR-3; read-out: TGI
  TGI: 25.5 µM
OVCAR-3; read-out: pGI50 (converted)
  GI50: 4.47 µM
OVCAR-3; [12]
  CC50: 55 µM
OVCAR-3; read-out: pTGI (converted)
  TGI: 28.8 µM
KM12 [6]
  growth at 1 µM: 33%
SK-MEL-28 [7]
  growth at 0.1 µM: 106%
OVCAR-4
  growth at 0.1 µM: 97%
KM12 [8]
  growth at 100 µM: -70%
TK-10
  growth at 10 µM: 37.5%
MOLT-4
  growth at 0.1 µM: 57%
DU-145 [9]
  growth at 1 µM: 64%
786-0
  growth at 100 µM: -81%
KM12 [10]
  growth at 0.1 µM: 98%
